18 compounds from US9850183B2, “Conjugates derived from non-steroidal anti-inflammatory drugs and methods of use thereof in imaging” (Reiley Pharmaceuticals, Inc., priority 2014, dated 2017) can be followed below.

The target in experiment [1] is T1, COX-2 (Mus musculus, UniProt Q05769).
T1 construct: endogenous in cells; host or cells: RAW264.7 murine macrophages, stimulated with LPS and IFN-g
T1 sequence (Q05769 18-604): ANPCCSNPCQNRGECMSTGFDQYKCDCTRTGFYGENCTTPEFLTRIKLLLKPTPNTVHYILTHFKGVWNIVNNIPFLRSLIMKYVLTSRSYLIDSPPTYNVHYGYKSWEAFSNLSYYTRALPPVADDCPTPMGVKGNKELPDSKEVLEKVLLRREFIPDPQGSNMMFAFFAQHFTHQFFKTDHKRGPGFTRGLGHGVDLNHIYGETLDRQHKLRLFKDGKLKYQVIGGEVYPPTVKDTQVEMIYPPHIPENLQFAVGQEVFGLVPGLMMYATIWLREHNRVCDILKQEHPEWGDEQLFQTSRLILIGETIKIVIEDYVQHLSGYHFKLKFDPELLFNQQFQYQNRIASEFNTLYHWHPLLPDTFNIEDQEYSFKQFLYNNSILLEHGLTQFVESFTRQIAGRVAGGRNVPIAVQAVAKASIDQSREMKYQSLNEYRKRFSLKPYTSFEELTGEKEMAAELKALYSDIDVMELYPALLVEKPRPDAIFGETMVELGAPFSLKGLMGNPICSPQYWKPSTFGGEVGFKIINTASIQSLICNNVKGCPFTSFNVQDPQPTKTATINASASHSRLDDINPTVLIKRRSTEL
As to the kind of experiment: Cell-based COX-2 assay (PGE2 in LPS/IFN-g stimulated RAW264.7 cells). To be noted: RAW264.7 murine macrophages, 1 μg/ml LPS and 10 U/ml IFN-g for 7 h, PGE2 readout. The protocol:
RAW264.7 murine macrophages were obtained from the Cell Bank of Shanghai Institute of Biochemistry and Cell Biology, Chinese Academy of Sciences (Shanghai, China) and cultured in Dulbecco's modified Eagle's medium containing 100 U/ml penicillin and 100 μg/ml streptomycin at 37° C. in 5% CO2.
RAW264.7 cells were plated at a density of 2.5×10^5/ml cells in a 96-well plate with 0.1 ml of culture medium per well and cultured overnight. The cells were pre-incubated for 30 min with various doses of compounds and stimulated for 7 h with 1 μg/ml LPS and 10 U/ml IFN-g. The cell culture supernatants were collected immediately following treatment and centrifuged at 1,000 rpm for 5 min to remove the particulate matter. PGE2 was determined using a Prostaglandin E2 assay kit (catalog no. 62P2APEB; Cisbio Co.,). 10 μL of cell supernatant was transferred to a 384-well low volume plate (e.g. Corning® 3544), 5 μL of PGE2-d2 was added, followed by 5 μL anti-PGE2 Cryptate as a negative control. Replace the standard by 10 μL of diluent and PGE2-d2 by 5 μL of reconstitution buffer, Cal0 (for positive control), replace the standard by 10 μL of diluent. Incubate at 4° C. overnight. After centrifuging at 1,000 rpm for 1 min, the dual fluorescence emissions of 615 and 665 nm with a 320 nm excitation were measured using an Envision plate reader (Perkin Elmer, Shelton, Conn.). The results are expressed as the ratio of 665 nm/615 nm emissions.
(§1) Dose-response curves were generated using XLFit (IDBS, Surrey, UK) or Prism (GraphPad Software, La Jolla, Calif., US) to calculate IC50 values for each compound tested.

The target of experiment [2] is T2, human COX-2 (Homo sapiens, UniProt P35354).
T2 construct: purchased Cayman Chemical Co., Ann Arbor, Mich., USA 701080
T2 sequence (P35354 18-604): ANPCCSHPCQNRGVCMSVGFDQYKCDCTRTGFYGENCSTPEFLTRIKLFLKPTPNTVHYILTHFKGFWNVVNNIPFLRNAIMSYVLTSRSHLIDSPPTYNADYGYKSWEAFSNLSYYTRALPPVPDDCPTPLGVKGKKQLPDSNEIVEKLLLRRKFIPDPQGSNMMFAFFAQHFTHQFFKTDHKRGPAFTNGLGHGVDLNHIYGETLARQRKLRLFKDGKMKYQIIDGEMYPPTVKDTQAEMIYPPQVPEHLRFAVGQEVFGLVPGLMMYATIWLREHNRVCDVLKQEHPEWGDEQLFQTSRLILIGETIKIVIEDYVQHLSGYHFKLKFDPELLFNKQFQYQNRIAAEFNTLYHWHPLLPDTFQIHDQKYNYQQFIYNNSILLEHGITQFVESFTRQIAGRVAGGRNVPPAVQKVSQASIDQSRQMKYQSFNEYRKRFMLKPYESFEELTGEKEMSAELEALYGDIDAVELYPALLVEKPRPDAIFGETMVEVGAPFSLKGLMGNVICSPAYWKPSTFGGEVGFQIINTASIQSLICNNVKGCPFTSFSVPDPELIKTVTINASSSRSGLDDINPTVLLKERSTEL
As to the kind of experiment: COX-2 enzyme assay (EIA kit, PGF2α readout). Format: biochemical. The procedure: (§2) The ability of compounds to inhibit ovine COX-1 and human COX-2 was determined using a commercially available enzyme immunoassay (EIA) kit (catalog no. 701090 (COX-1); 701080 (COX-2) Cayman Chemical Co., Ann Arbor, Mich., USA) according to the manufacturer's protocol. COX catalyzes the first step in the biosynthesis of AA to PGH2. PGF2α, produced from PGH2 by reduction with stannous chloride, was measured by EIA (ACE™ competitive EIA, Cayman Chemical, Ann Arbor, Mich., USA). Briefly, to a series of supplied reaction buffer solutions [960 μl 0.1 M Tris-HCl (pH 8.0) containing 5 mM EDTA and 2 mM phenol] with either COX-1 or COX-2 (10 μl) enzyme in the presence of heme (10 μl), 10 μl of various concentrations of test drug solutions were added. These solutions were incubated for 15 min at 37° C. and subsequently 10 μl AA solution (100 μM) was added. The COX reaction was stopped by the addition of 30 μl stannus chloride after 2 min, mixed immediately, supernatants were 2000 fold diluted. The produced PGF2α was measured by EIA. This assay is based on the competition between PGs and a PG-acetylcholinesterase conjugate (PG tracer) for a limited amount of PG antiserum. The amount of PG tracer that is able to bind to the PG antiserum is inversely proportional to the concentration of PGs in the wells since the concentration of the PG tracer is held at a constant while the concentration of PGs varies. The specific antiserum-PG complex bound to a mouse anti-rabbit IgG that had been previously attached to the well. The plate was washed to remove any unbound reagents and 200 μl Ellman's reagent (5,5′-dithiobis-(2-nitrobenzoic acid), which contains the substrate to acetylcholine esterase, was added to the well. The product of this enzymatic reaction generates a distinct yellow color that absorbs at 406 nm. The intensity of this color, determined by spectrophotometry, is proportional to the amount of PG tracer bound to the well, which is inversely proportional to the amount of PGs present in the well during the incubation. Percent inhibition was calculated by the comparison of the compounds treated to the various control incubations.
as §1

Experiment [3] concerns the target T3, ovine COX-1 (Ovis aries, UniProt P05979).
T3 sequence (P05979 25-600): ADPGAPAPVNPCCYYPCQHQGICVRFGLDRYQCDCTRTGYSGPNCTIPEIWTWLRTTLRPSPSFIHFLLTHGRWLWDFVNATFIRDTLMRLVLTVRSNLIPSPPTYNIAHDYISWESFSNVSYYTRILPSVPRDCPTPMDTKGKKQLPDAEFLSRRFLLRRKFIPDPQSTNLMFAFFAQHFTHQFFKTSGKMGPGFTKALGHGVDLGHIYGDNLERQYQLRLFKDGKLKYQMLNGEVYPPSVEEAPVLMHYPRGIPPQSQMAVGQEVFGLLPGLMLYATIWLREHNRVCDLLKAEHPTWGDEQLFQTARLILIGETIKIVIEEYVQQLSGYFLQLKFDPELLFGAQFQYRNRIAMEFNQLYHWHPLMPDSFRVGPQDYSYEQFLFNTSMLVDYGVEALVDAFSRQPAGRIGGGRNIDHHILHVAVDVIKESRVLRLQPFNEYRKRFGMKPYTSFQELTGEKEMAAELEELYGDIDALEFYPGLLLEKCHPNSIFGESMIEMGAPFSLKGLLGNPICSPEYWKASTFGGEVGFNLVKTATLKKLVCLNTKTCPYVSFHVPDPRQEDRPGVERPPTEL
The experiment in a line: biochemical. To be noted: ovine COX-1 enzyme, EIA; read-out: COX-1 IC50 (μm) enzyme. The protocol:
as §2, §1

Setting [4] is: human COX-2 enzyme, EIA, 15 min pre-incubation at 37° C., read-out: COX-2 IC50 (μM) enzyme.

Like-named read-outs stand apart in the source and are kept apart here.

A word on the IC50: it is the concentration that gives 50% inhibition. For the compound `COc1ccc2c(c1)c(CC(=O)NCCCCCCNC(=O)[c-]1cccc1)c(C)n2C(=O)c1ccc(Cl)cc1.[C-]#[O+].[C-]#[O+].[C-]#[O+].[Re+]` [Compound 242], the half-maximal inhibitory concentration (IC50) in experiment [1] is 0.4 µM; in experiment [2] (setting [4]), 0.3 µM; in experiment [3], over 30000 nM.

Take `COc1ccc2c(c1)c(CC(=O)NCCCOCCC[N+]13CC[S][Re-]14(=[O])[S]CC[N]4C(=O)C3)c(C)n2C(=O)c1ccc(Cl)cc1` (stereo not drawn) [Compound 266]: the IC50 in experiment [1] was 0.2 µM; in experiment [2] (setting [4]) it was 0.6 µM.

As to `COc1ccc2c(c1)c(CC(=O)NCCCOCC[N+]13CC[S][Re-]14(=[O])[S]CC[N]4C(=O)C3)c(C)n2C(=O)c1ccc(Cl)cc1` (stereo not drawn) [Compound 267], the values for the IC50 in experiment [1] and in experiment [2] (setting [4]) were 0.3 µM and over 30 µM, respectively.

On to `COc1ccc2c(c1)c(CC(=O)NCCCS(=O)(=O)CCC[N+]13CC[S][Re-]14(=[O])[S]CC[N]4C(=O)C3)c(C)n2C(=O)c1ccc(Cl)cc1` (stereo not drawn) [Compound 268], for which the 50% inhibitory concentration (IC50) in experiment [1] was over 10 µM; in experiment [2] (setting [4]), over 30 µM.

Take `COc1ccc2c(c1)c(CC(=O)NCCOCCOCC[N+]13CC[S][Re-]14(=[O])[S]CC[N]4C(=O)C3)c(C)n2C(=O)c1ccc(Cl)cc1` (stereo not drawn) [Compound 269]: the IC50 in experiment [1] was determined as 0.9 µM; in experiment [2] (setting [4]), 0.5 µM.

As to `COc1ccc2c(c1)c(CC(=O)NCCC(C)(C)CC[N+]13CC[S][Re-]14(=[O])[S]CC[N]4CC3)c(C)n2C(=O)c1ccc(Cl)cc1` (stereo not drawn) [Compound 307], the values for the concentration for half-maximal inhibition (IC50) in experiment [1] and in experiment [2] (setting [4]) were 0.5 µM and over 30 µM, respectively.

As to `COc1ccc2c(c1)c(CC(=O)NCCCCCNC(=O)c1ccc[cH-]1)c(C)n2C(=O)c1ccc(Cl)cc1.[C-]#[O+].[C-]#[O+].[C-]#[O+].[Re+]` [Compound 308], the IC50 in experiment [1] stood at 0.2 µM; in experiment [2] (setting [4]), 0.9 µM.

In the case of `COc1ccc2c(c1)c(CC(=O)NCCC(C)(C)CCNC(=O)c1ccc[cH-]1)c(C)n2C(=O)c1ccc(Cl)cc1.[C-]#[O+].[C-]#[O+].[C-]#[O+].[Re+]` [Compound 309], the IC50 in experiment [1] stood at 0.3 µM; in experiment [2] (setting [4]) it was 0.5 µM.

In the case of `COc1ccc2c(c1)c(CC(=O)NCCCOCCCNC(=O)c1ccc[cH-]1)c(C)n2C(=O)c1ccc(Cl)cc1.[C-]#[O+].[C-]#[O+].[C-]#[O+].[Re+]` [Compound 310], the half-inhibitory concentration (IC50) is 0.2 µM in experiment [1] and over 30 µM in experiment [2] (setting [4]).

`COc1ccc2c(c1)c(CC(=O)NCCCCC(C)(C)NC(=O)c1ccc[cH-]1)c(C)n2C(=O)c1ccc(Cl)cc1.[C-]#[O+].[C-]#[O+].[C-]#[O+].[Re+]` [Compound 312]: the IC50 in experiment [1] worked out at 0.4 µM; in experiment [2] (setting [4]) it was 0.1 µM.

Regarding `COc1ccc2c(c1)c(CC(=O)N[C@H](C)CCCCC[N+]13CC[S][Re-]14(=[O])[S]CC[N]4C(=O)C3)c(C)n2C(=O)c1ccc(Cl)cc1` (stereo partly drawn) [Compound 328], the IC50 in experiment [1] was 0.1 µM; in experiment [2] (setting [4]) it was 0.6 µM.

On to `COc1ccc2c(c1)c(CC(=O)NCCC=CCC[N+]13CC[S][Re-]14(=[O])[S]CC[N]4C(=O)C3)c(C)n2C(=O)c1ccc(Cl)cc1` (stereo not drawn) [Compound 341], for which the IC50 was 0.3 µM in experiment [1] and 0.8 µM in experiment [2] (setting [4]).

For `[2H]C([2H])([2H])Oc1ccc2c(c1)c(CC(=O)NCCCCCC[N+]13CC[S][Re-]14(=[O])[S]CC[N]4C(=O)C3)c(C)n2C(=O)c1ccc(Cl)cc1` (stereo not drawn) [Compound 346], the half-inhibitory concentration (IC50) is 0.2 µM in experiment [1] and 0.3 µM in experiment [2] (setting [4]).

On to `COc1ccc2c(c1)c(CC(=O)NCCCCCC[N+]13CC[S][Re-]14(=[O])[S]CC[N]4C(=O)C3)c(C(F)(F)F)n2C(=O)c1ccc(Cl)cc1` (stereo not drawn) [Compound 351], for which the IC50 in experiment [1] was 0.4 µM; in experiment [2] (setting [4]), over 30 µM.

Turning to `COc1ccc2c(c1)c(CCNC(=O)CCCCC[N+]13CC[S][Re-]14(=[O])[S]CC[N]4C(=O)C3)c(C)n2C(=O)c1ccc(Cl)cc1` (stereo not drawn) [Compound 359], the IC50 was 0.2 µM in experiment [1] and 0.6 µM in experiment [2] (setting [4]).

As for `NS(=O)(=O)c1ccc(-n2nc(CNC(=O)c3ccc[cH-]3)cc2-c2ccc(F)cc2)cc1.[C-]#[O+].[C-]#[O+].[C-]#[O+].[Re+]` [Compound 365], the IC50 in experiment [1] turned out to be 1.1 µM; in experiment [2] (setting [4]) it was 7.9 µM.

As to `NS(=O)(=O)c1ccc(-n2nc(CNC(=O)CCCCC[N+]34CC[S][Re-]35(=[O])[S]CC[N]5C(=O)C4)cc2-c2ccc(F)cc2)cc1` (stereo not drawn) [Compound 367], the IC50 in experiment [1] was over 10 µM; in experiment [2] it was 4.5 µM.

With `COc1ccc2c(c1)c(CCNCc1ccccn1)c(C)n2C(=O)c1ccc(Cl)cc1` [Compound 369], in experiment [3], the IC50 is over 30000 nM.
